{"source": "BindingDB's records for doi:10.1016/j.ejmech.2017.10.076", "about": "(Wayne State University, 2018)", "key": {"Histone deacetylase 3": {"target": "Histone deacetylase 3 (Homo sapiens, UniProt O15379)", "sequence (O15379 whole entry)": "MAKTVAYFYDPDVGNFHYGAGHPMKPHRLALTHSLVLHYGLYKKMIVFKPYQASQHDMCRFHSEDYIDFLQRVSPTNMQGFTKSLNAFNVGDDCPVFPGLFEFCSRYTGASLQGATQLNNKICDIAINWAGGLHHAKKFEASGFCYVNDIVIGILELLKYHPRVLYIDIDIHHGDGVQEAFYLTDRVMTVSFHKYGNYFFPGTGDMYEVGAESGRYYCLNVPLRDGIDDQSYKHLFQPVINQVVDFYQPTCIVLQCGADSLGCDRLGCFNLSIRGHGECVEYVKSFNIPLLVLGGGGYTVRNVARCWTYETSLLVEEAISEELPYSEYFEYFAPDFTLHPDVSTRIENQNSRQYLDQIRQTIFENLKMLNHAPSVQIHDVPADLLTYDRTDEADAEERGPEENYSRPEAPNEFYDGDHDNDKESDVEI", "experiment": "Inhibition of HDAC3 in human HeLa-S3 cell lysates preincubated for 15 mins followed by HDAC-Glo substrate addition measured after 30 to 40 mins by fluorimetric method"}, "Histone deacetylase 1": {"target": "Histone deacetylase 1 (Homo sapiens, UniProt Q13547)", "sequence (Q13547 whole entry)": "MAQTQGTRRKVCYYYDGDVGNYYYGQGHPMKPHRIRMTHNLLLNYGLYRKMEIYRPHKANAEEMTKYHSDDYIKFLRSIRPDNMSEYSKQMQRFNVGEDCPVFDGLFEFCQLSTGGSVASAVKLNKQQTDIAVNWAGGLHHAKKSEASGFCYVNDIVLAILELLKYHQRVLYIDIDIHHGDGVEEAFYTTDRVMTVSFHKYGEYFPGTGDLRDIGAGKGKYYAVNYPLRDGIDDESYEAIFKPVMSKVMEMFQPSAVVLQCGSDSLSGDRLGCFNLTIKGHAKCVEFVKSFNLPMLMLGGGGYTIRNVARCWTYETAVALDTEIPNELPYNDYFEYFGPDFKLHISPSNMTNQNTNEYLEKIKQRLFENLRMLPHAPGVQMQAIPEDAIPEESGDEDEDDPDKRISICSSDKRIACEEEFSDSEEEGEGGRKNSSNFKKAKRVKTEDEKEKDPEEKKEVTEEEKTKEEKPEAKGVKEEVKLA", "experiment": "Inhibition of HDAC1 in human HeLa-S3 cell lysates preincubated for 15 mins followed by HDAC-Glo substrate addition measured after 30 to 40 mins by fluorimetric method"}, "Histone deacetylase 8": {"target": "T1, Histone deacetylase 8 (Homo sapiens, UniProt Q9BY41)", "T1 sequence (Q9BY41 whole entry)": "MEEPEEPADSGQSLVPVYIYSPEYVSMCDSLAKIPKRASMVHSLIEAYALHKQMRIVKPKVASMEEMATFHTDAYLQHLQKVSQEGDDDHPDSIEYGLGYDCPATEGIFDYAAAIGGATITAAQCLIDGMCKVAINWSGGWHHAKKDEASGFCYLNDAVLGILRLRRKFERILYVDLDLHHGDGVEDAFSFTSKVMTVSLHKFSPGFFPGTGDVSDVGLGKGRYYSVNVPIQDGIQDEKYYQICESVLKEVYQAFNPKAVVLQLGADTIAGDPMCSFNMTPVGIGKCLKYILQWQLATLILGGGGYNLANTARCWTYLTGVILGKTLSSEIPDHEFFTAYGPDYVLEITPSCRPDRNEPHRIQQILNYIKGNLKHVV", "experiment": "Inhibition of human recombinant full-length C-terminal His-tagged HDAC8 expressed in baculovirus infected Sf9 insect cell preincubated for 15 mins followed by HDAC-Glo substrate addition measured after 30 mins by fluorimetric method"}, "Histone deacetylase 6": {"target": "T2, Histone deacetylase 6 (Homo sapiens, UniProt Q9UBN7)", "T2 sequence (Q9UBN7 whole entry)": "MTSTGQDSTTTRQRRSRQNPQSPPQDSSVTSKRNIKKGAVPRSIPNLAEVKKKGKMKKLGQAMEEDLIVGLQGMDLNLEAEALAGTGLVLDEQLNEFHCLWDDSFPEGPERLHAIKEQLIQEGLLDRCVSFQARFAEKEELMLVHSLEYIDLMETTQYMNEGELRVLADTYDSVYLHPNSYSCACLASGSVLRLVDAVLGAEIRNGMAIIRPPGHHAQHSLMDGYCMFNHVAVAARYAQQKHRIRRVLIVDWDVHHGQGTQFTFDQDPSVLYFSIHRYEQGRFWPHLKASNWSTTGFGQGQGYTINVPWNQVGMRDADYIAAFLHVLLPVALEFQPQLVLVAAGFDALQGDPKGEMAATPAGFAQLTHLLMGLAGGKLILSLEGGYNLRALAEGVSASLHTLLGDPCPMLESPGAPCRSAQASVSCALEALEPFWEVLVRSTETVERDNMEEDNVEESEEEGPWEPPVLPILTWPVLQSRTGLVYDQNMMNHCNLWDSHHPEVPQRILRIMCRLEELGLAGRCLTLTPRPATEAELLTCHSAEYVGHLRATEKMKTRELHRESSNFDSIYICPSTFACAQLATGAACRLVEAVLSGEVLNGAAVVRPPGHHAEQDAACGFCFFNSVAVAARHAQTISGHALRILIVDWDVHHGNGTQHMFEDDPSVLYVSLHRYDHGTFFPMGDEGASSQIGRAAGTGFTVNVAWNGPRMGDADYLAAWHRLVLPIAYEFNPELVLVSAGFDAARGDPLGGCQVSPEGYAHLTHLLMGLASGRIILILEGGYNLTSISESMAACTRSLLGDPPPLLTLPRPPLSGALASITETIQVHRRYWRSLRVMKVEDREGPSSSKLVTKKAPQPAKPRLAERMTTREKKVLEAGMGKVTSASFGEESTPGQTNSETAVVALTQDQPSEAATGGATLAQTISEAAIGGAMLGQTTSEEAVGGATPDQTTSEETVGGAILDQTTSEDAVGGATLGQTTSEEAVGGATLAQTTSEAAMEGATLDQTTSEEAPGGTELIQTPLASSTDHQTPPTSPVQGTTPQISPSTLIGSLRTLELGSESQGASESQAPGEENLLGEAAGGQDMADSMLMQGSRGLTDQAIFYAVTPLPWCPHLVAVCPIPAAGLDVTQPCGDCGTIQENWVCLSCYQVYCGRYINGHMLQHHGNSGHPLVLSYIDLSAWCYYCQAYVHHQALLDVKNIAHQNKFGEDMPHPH", "experiment": "Inhibition of HDAC6 in human HeLa-S3 cell lysates preincubated for 15 mins followed by HDAC-Glo substrate addition measured after 30 to 40 mins by fluorimetric method"}}}
{"compound": "O=C(CCC(CCCC(=O)Nc1ccccc1)c1ccccc1)NO", "note": "(centres undefined)", "values": [{"measurement": "IC50", "setting": "Histone deacetylase 3", "result": 23, "unit": "µM"}, {"measurement": "IC50", "setting": "Histone deacetylase 1", "result": 11, "unit": "µM"}, {"measurement": "IC50", "setting": "Histone deacetylase 8", "result": 0.29, "unit": "µM"}, {"measurement": "IC50", "setting": "Histone deacetylase 6", "result": 0.11, "unit": "µM"}]}
